Data reported in patent US20100273769A1, “COMPOSITION AND METHOD FOR THE TREATMENT OF PARKINSON'S DISEASE” (priority 2009, published 2010).
pEC50, pIC50: −log10 of the molar value. Where two headings read alike, the source gives them in different places.

Legend:
[1] = biological target: T1, wildtype human LRRK2 (Homo sapiens, UniProt Q5S007); test: Adapta assay, inhibition of wildtype human LRRK2 kinase fragment with LRRKtide; format: biochemical
T1 construct: human LRRK2 protein fragment encompassing amino acids 1326 to 2527; GST; made in house
T1 sequence (Q5S007 1326-2527): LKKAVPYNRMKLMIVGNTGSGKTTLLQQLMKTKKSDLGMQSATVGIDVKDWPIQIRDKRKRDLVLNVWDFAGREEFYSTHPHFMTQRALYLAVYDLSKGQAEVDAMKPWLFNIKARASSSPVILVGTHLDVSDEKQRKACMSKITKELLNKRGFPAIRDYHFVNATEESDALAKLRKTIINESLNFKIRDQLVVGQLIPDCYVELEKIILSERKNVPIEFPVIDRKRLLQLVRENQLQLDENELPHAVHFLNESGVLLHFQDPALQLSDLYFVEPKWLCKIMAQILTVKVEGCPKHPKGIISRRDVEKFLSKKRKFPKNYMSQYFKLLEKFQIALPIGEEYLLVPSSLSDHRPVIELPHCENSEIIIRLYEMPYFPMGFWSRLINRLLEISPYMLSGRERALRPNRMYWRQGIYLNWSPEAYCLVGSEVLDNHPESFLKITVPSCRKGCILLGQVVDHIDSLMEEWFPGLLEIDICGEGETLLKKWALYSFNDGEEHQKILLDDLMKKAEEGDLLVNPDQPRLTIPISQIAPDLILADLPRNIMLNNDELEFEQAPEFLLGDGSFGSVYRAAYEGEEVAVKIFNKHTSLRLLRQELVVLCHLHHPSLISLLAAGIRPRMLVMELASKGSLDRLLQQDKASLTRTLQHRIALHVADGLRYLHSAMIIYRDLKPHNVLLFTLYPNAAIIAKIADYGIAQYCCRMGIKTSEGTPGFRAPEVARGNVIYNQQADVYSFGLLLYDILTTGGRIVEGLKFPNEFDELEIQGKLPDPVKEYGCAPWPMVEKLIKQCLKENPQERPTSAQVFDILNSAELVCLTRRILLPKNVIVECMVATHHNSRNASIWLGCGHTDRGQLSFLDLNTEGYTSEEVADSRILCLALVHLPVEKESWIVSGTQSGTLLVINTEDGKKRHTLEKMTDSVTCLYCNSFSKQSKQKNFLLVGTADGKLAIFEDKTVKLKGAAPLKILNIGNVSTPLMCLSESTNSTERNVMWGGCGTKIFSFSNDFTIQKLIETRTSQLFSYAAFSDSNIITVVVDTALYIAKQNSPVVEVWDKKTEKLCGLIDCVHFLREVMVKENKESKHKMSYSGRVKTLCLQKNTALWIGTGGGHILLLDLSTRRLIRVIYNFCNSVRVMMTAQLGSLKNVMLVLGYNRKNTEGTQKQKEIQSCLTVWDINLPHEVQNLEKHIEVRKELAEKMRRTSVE

[2] = biological target: ERK2 (Homo sapiens, UniProt P28482); test: Kinase specificity, ERK2; format: biochemical; conditions: 100 μM ATP
Sequence of ERK2 (P28482 whole entry, species assumed): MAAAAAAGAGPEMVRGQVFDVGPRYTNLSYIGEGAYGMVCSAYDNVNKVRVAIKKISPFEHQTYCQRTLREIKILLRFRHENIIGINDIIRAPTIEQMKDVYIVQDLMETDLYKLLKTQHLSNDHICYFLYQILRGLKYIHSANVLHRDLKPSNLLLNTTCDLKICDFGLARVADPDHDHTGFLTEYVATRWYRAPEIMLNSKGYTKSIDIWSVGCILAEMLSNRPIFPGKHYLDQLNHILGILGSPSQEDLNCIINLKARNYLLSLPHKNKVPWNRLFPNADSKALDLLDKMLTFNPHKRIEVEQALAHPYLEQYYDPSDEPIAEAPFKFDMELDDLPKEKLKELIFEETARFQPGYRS

[3] = system: R1441C LRRK2 transgenic C. elegans; test: Food-sensing (slowing) response in LRRK2 transgenic C. elegans; format: in vivo; conditions: Caenorhabditis elegans, 96 h; exposure through larval stages to adult stage day 4; read-out: Half-maximal restoration of the slowing response after food exposure
Method: Dopaminergic neurons in C. elegans are involved in food sensing behavior such that in the absence of food worms move more rapidly, as assessed by determining their bending frequency on an agar plate not supplied with food. In an established assay the animals are then exposed to food, and the difference in motility is recorded in the form of bending frequency [Sawin et al., Neuron 26, 619-631 (2000)]. […] In approximate synchrony with the dopaminergic neurodegeneration this slowing response is essentially eliminated after 4 days. […] The slowing response can be reconstituted to a substantial degree by supplementation with dopamine, confirming that the phenotype is due to loss of dopaminergic input (FIG. 5).
The clear-cut functional phenotype of this model can be used to determine the efficacy of LRRK2 kinase inhibitors and the accurate determination of their potency in a biological context. […] The potency is expressed as the half-maximal restoration of the slowing response. […]
The functional consequence of dopaminergic neurodegeneration was assayed using the food-sensing response resulting in a slowing of motility after food exposure as assessed by the frequency of body bending within 20 second intervals in groups of 10 animals [Sawin et al., Neuron 26, 619-631 (2000)]. […]

[4] = rodents, in vivo

With `CNC(=O)[C@@]1(N)CC2OC1(C)n1c3ccccc3c3c4c(c5c6ccccc6n2c5c31)C(=O)NC4` (stereo partly drawn) [Compound 3] the “IC50 relative to nominal kinase concentration, wild-type LRRK2” value ([1]; 100 μM ATP, FIG. 3A) was “substantially below the nominal concentration of the kinase itself”, the pIC50 ([1]; 100 μM ATP, read-out: LRRK2) was 8.96 and the pIC50 ([1]; 100 microM ATP, read-out: LRRK2 inhibitory potency (essentially receptor-limited)) was at least 9.00. For the same compound, the pIC50 [2] was 7.59, the pEC50 [3] was 7.52 and the “Plasma concentration sustained without detectable toxicity” value [4] was 600 to 800 nM.
